molecular target: T1, galectin-3 (Homo sapiens, UniProt P17931); assay: Galectin-3 Activity ELISA assay: inhibition of binding of galectin-3 to a Galβ1-3GlcNAc carbohydrate structure; conditions: galectin-3 binding to immobilized Galβ1-3GlcNAc polymer, A450 readout, read-out: IC50 Galectin-3 Antagonist Activity
T1 construct: purchased IBL IBATGP0414
Method: Galectin-3 antagonists were evaluated for their ability to inhibit binding of galectin-3 to a Galβ1-3GlcNAc carbohydrate structure. The detailed protocol was as follows. A 1 ug/mL suspension of a Galβ1-3GlcNAcβ1-3Galβ1-4GcNAcβ-PAA-biotin polymer (Glycotech, catalog number 01-096) was prepared. A 100 uL aliquot of the polymer was added to the wells of a 96-well streptavidin-coated plate (R&D Systems, catalog number CP004). A 100 uL aliquot of IX Tris Buffered Saline (TBS, Sigma, catalog number T5912-10×) was added to control wells. The polymer was allowed to bind to the streptavidin-coated wells for 1.5 hours at room temperature. The contents of the wells were discarded and 200 uL of 1×TBS containing 1% bovine serum albumin (BSA) was added to each well as a blocking reagent and the plate was kept at room temperature for 30 minutes. The wells were washed three times with IX TBS containing 0.1% BSA. A serial dilution of test compounds was prepared in a separate V-bottom plate (Corning, catalog number 3897). A 75 uL aliquot of the highest concentration of the compound to be tested was added to the first well in a column of the V-bottom plate then 15 ul were serially transferred into 60 uL IX TBS through the remaining wells in the column to generate a 1 to 5 serial dilution. A 60 uL aliquot of 2 ug/mL galectin-3 (IBL, catalog number IBATGP0414) was added to each well in the V-bottom plate. A 100 uL aliquot of the galectin-3/test compound mixture was transferred from the V-bottom plate into the assay plate containing the Galβ1-3GlcNAc polymer. Four sets of control wells in the assay plate were prepared in duplicate containing 1) both Galβ1-3GlcNAc polymer and galectin-3, 2) neither the polymer nor galectin-3, 3) galectin-3 only, no polymer, or 4) polymer only, no galectin-3. The plate was gently rocked for 1.5 hours at room temperature. The wells were washed four times with TBS/0.1% BSA. A 100 uL aliquot of anti-galectin-3 antibody conjugated to horse radish peroxidase (R&D Systems, from DGAL30 kit) was added to each well and the plate was kept at room temperature for 1 hour. The wells were washed four times with TBS/0.1% BSA. A 100 uL aliquot of TMB substrate solution was added to each well. The TMB substrate solution was prepared by making a 1:1 mixture of TMB Peroxidase Substrate (KPL, catalog number 5120-0048) and Peroxidase Substrate Solution B (KPL, catalog number 5120-0037). The plate was kept at room temperature for 10 to 20 minutes. The color development was stopped by adding 100 uL 10% phosphoric acid (RICCA Chemical Co., catalog number 5850-16). The absorbance at 450 nm (A450) was measured using a FlexStation 3 plate reader (Molecular Devices). Plots of A450 versus test compound concentration and IC50 determinations were made using GraphPad Prism 6.

T1 sequence (P17931 whole entry): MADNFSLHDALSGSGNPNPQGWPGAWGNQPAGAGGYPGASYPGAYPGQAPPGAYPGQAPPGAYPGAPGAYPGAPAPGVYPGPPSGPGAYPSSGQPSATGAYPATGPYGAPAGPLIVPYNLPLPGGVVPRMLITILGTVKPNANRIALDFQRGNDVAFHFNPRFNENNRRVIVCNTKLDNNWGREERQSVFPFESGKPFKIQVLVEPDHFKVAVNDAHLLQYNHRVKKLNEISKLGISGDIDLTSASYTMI

IC50 [nM] | SMILES
670 | CNC(=O)[C@@H](OCc1cccc(C(=O)OC)c1)[C@@H]1OC(CO)[C@H](O)C(n2cc(-c3cc(F)c(F)c(F)c3)nn2)C1O (stereo partly shown) [Compound 18]
320 | CNC(=O)[C@@H](OCc1ccc(Cl)cc1)[C@@H]1OC(CO)[C@H](O)C(n2cc(-c3cc(F)c(F)c(F)c3)nn2)C1O (stereo partly shown) [Compound 19]
1520 | CNC(=O)[C@@H](OCc1cccc(Cl)c1)[C@@H]1OC(CO)[C@H](O)C(n2cc(-c3cc(F)c(F)c(F)c3)nn2)C1O (stereo partly shown) [Compound 20]
1720 | CNC(=O)[C@@H](OCc1ccc(F)cc1)[C@@H]1OC(CO)[C@H](O)C(n2cc(-c3cc(F)c(F)c(F)c3)nn2)C1O (stereo partly shown) [Compound 24]
690 | CNC(=O)[C@@H](OCc1ccc(S(C)(=O)=O)cc1)[C@@H]1OC(CO)[C@H](O)C(n2cc(-c3cc(F)c(F)c(F)c3)nn2)C1O (stereo partly shown) [Compound 28]
4600 | CNC(=O)[C@@H](OCc1ccc(C(=O)OC)cc1)[C@@H]1OC(CO)[C@H](O)C(n2cc(-c3cc(F)c(F)c(F)c3)nn2)C1O (stereo partly shown) [Compound 29]
850 | CNC(=O)[C@@H](OCc1cccnc1)[C@@H]1OC(CO)[C@H](O)C(n2cc(-c3cc(F)c(F)c(F)c3)nn2)C1O (stereo partly shown) [Compound 34]
3860 | CNC(=O)[C@@H](OCc1ccccc1)[C@@H]1OC(CO)[C@H](O)C(n2cc(-c3cc(F)c(F)c(F)c3)nn2)C1O (stereo partly shown) [Compound 36]
9580 | COC1[C@H]([C@H](OCc2ccccc2)C(=O)N(C)C)OC(CO)[C@H](O)[C@@H]1n1cc(-c2cc(F)c(F)c(F)c2)nn1 (stereo partly shown) [Compound 41]
2060 | COC1C(n2cc(-c3cc(F)c(F)c(F)c3)nn2)[C@@H](O)C(CO)O[C@H]1[C@H](OCc1ccc(Cl)cc1)C(=O)N(C)C (stereo partly shown) [Compound 42]

Continued, molecule first:

SMILES | IC50 [nM]
COC(=O)[C@@H](OCc1ccccc1)[C@@H]1OC(CO)[C@H](O)C(n2cc(-c3cc(F)c(F)c(F)c3)nn2)C1O (stereo partly shown) [Compound 13] | 3480
CNC(=O)[C@@H](OCc1ccc2ccccc2c1)[C@@H]1OC(CO)[C@H](O)C(n2cc(-c3cc(F)c(F)c(F)c3)nn2)C1O (stereo partly shown) [Compound 16] | 530
CNC(=O)[C@@H](OCc1cccc(-c2ccccc2)c1)[C@@H]1OC(CO)[C@H](O)C(n2cc(-c3cc(F)c(F)c(F)c3)nn2)C1O (stereo partly shown) [Compound 17] | 2560
CNC(=O)[C@@H](OCc1cccc(OC(F)(F)F)c1)[C@@H]1OC(CO)[C@H](O)C(n2cc(-c3cc(F)c(F)c(F)c3)nn2)C1O (stereo partly shown) [Compound 21] | 1940
CNC(=O)[C@@H](OCc1ccc(F)c(F)c1)[C@@H]1OC(CO)[C@H](O)C(n2cc(-c3cc(F)c(F)c(F)c3)nn2)C1O (stereo partly shown) [Compound 25] | 1080
CNC(=O)[C@@H](OCc1ccc(C(F)(F)F)cc1)[C@@H]1OC(CO)[C@H](O)C(n2cc(-c3cc(F)c(F)c(F)c3)nn2)C1O (stereo partly shown) [Compound 26] | 350
CNC(=O)[C@@H](OCc1ccc(F)c(Cl)c1)[C@@H]1OC(CO)[C@H](O)C(n2cc(-c3cc(F)c(F)c(F)c3)nn2)C1O (stereo partly shown) [Compound 27] | 2090
CNC(=O)[C@@H](OCc1ccc(OC(F)(F)F)cc1)[C@@H]1OC(CO)[C@H](O)C(n2cc(-c3cc(F)c(F)c(F)c3)nn2)C1O (stereo partly shown) [Compound 30] | 4980
CNC(=O)[C@@H](OCc1ccc(Cl)c(F)c1)[C@@H]1OC(CO)[C@H](O)C(n2cc(-c3cc(F)c(F)c(F)c3)nn2)C1O (stereo partly shown) [Compound 31] | 180
CNC(=O)[C@@H](OCc1ccc(OC)cc1)[C@@H]1OC(CO)[C@H](O)C(n2cc(-c3cc(F)c(F)c(F)c3)nn2)C1O (stereo partly shown) [Compound 32] | 2810
CNC(=O)[C@@H](OCc1ccc(C2CC2)cc1)[C@@H]1OC(CO)[C@H](O)C(n2cc(-c3cc(F)c(F)c(F)c3)nn2)C1O (stereo partly shown) [Compound 33] | 1640
CCCCNC(=O)[C@@H](OCc1ccccc1)[C@@H]1OC(CO)[C@H](O)C(n2cc(-c3cc(F)c(F)c(F)c3)nn2)C1O (stereo partly shown) [Compound 35] | > 100000
CNC(=O)[C@@H](OCc1ccccc1)[C@@H]1OC(CO)[C@H](O)[C@H](n2cc(-c3cc(F)c(F)c(F)c3)nn2)C1OC (stereo partly shown) [Compound 40] | 2610
COC1C(n2cc(-c3cc(F)c(F)c(F)c3)nn2)[C@@H](O)C(CO)O[C@H]1[C@H](OCc1ccc(Cl)cc1)C(=O)Nc1ccccc1F (stereo partly shown) [Compound 69] | 230
COC1C(n2cc(-c3cc(F)c(F)c(F)c3)nn2)[C@@H](O)C(CO)O[C@H]1[C@H](OCc1ccc(Cl)cc1)C(=O)NCC(F)(F)F (stereo partly shown) [Compound 70] | 720
